Experiments:
mice [1] = assay: Antagonism of selective opioid agonist-induced antinociception, intrathecal, modified tail flick assay; type: in vivo, mouse; settings: for norBNI antagonism of antinociception with co-administered dynorphin-A antiserum (DAS): FIG. 7, FIG. 8
[2] = system: guinea pig ileum preparation; assay: Guinea pig ileal longitudinal muscle preparation, electrically stimulated contraction; settings: guinea pig ilium preparation
[3] = system: mouse vas deferens preparation; assay: Mouse vas deferens preparation (MVD)
Protocol: Mouse vasa deferentia are prepared using the method of Henderson, et al (see Henderson, G.; Hughes, J.; Kosterlitz, H. W., Br. J. Pharmacol. 1972, 46, 764-766). Male ICR mice (30-35 g) are killed by cervical dislocation. Both vasa deferentia are removed and mounted between platinum ring electrodes and placed in a 10-mL organ bath containing a modified Kreb's solution (NaCl, 118 mM; KCl, 4.70 mM;CaCl2, 2.52 mM; KH2PO4, 1.19 mM; NaHCO3, 25 mM; glucose, 11.48 mM; pH =7.4) at 37° C. The bath is continuously bubbled with a 95% O2, 5% CO2, gas mixture. One end of the vas deferens is attached to the electrode assembly, the other is attached to a Statham-Gould UC-3 isometric force transducer using 6.0 surgical silk. The vasa deferentia are stimulated transmurally with a Grass S44 stimulator (square waves of supramaximal voltage (70 V) for 1 msec and a frequency of 0.1 Hz). Resting tension is 200 mg. Vasa deferentia are stimulated continuously for 20 minutes before each experiment to allow equilibration to occur. The tissues are washed every 10 minutes during this period.

mice [4] = assay: Tail-flick analgesia after intrathecal or intraventricular administration; type: in vivo, mouse
From the text: In the tail-flick assay which was modified for mice, the animal responses are made quantal by establishing and end point at the mean peak effect which represents an increase in the reaction time of an individual animal of greater than three S.D. of the control mean reaction time for all animals used in the group (see F. E. d'Amour et al., J. Pharmacol. Exp. Ther., 1941, 72, 7479; and J. J. Rady et al., J. Pharmacol Exp. Ther., 2000, 224, 93-101). Non-responding animals will be removed from the heat stimulus when reaction times exceed 3 seconds to avoid damage to their tails. At least 50 animals will be used to determine each peak time and ED50 dose-response curve. The ED50 and its 95% confidence interval are estimated using computer programs for both of these statistical procedures.

[5] = ED50 with nor-BNI / control ED50
[6] = agonist i.t. with antagonist BNTX 25 pmol/mouse i.t.
[7] = agonist i.t. with antagonist CTOP 5.9 pmol/mouse i.t.
[8] = agonist i.t. with antagonist NTB 50 pmol/mouse i.t.
[9] = agonist i.t. with antagonist nor-BNI 2.5 nmol/mouse i.t.
[10] = intrathecal (i.t.) administration

Compound | Potency Ratio (95% C.I.) (mice [1]; ED50 with BNTX / control ED50) | Potency Ratio (95% C.I.) (mice [1]; ED50 with CTOP / control ED50) | Potency Ratio (95% C.I.) (mice [1]; ED50 with NTB / control ED50) | Potency Ratio (95% C.I.) (mice [1]; [5]) | norBNI antagonism of antinociception with co-administered dynorphin-A antiserum (DAS) (mice [1]) | ED50 (95% C.I.) (mice [1]; [6]) | ED50 (95% C.I.) (mice [1]; [7]) | ED50 (95% C.I.) (mice [1]; [8]) | ED50 (95% C.I.) (mice [1]; [9]) | antagonism of antinociception by CTOP (μ antagonist), in words (mice [1]; i.t., mice) | antagonism of antinociception by nor-BNI (κ antagonist), in words (mice [1]; i.t., mice) | antagonism of agonist effect by delta antagonist naltrindole (NTI) [2] | agonist or antagonist activity in MVD [3] | analgesia (mice [4]; icv, concentration 20-fold that of the i.t. dose) | ED50 analgesia (mice [4]; [10]) | antagonism of i.t. analgesia by norBNI (mice [4]; [10]) | analgesic effect (mice [4]; intraventricular (icv), 10-fold higher concentration than i.t.) | antagonism of antinociception by BNTX, in words (mice [1]; i.t., mice)
C[C@@H](NC(=O)[C@@H](N)Cc1ccc(O)cc1)C(=O)NCC(=O)N(C)[C@@H](Cc1ccccc1)C(=O)NCCO [DAMGO, [D-Ala^2,N-Me-Phe^4,Gly-ol^5]enkephalin] | 1.50 (0.94-2.83) | 9.89 (5.91-15.34) | 1.20 (0.61-3.26) | 26.26 (16.30-46.90) | little if any antagonism | 0.017 (0.012-0.027) nmol/mouse | 0.112 (0.070-0.157) nmol/mouse | 0.014 (0.008-0.027) nmol/mouse | 0.283 (0.202-0.417) nmol/mouse | antagonized | antagonized |  |  |  |  |  |  | 
NC(N)=Nc1ccc2c3c([nH]c2c1)[C@@H]1Oc2c(O)ccc4c2[C@@]12CCN(CC1CC1)C(C4)[C@]2(O)C3 [compound 7, 6′-Guanidino-17-(cyclopropylmethyl)-6,7-didehydro-4,5α-epoxy-3,14-hydroxyindolo-[2′,3′:6,7]morphinian] |  |  |  |  |  |  |  |  |  |  |  | non-competetively antagonized | inactive as an agonist or as an antagonist | 20% | 0.45 nmol/mouse | could be antagonized by norBNI | no analgesic effect | 
[D-Pen^2,5]enkephalin [DPDPE] | 10.61 (6.08-18.51) | 1.43 (1.06-1.93) | 0.98 (0.71-1.41) | 12.44 (9.91-15.83) | failed to substantially reduce the potent norBNI antagonism | 41.10 (26.44-60.95) nmol/mouse | 5.11 (4.04-6.37)) nmol/mouse | 3.44 (2.69-4.45) nmol/mouse | 43.30 (36.40-51.59) nmol/mouse |  | antagonized |  |  |  |  |  |  | antagonized
